Test results: US20090149436A1, “CASPASE INHIBITOR” (Astellas Pharma Inc., priority 2004, published 2009)
Where two headings read alike, the source gives them in different places.

Experiments:
Format in all cases: biochemical
cathepsin B = cathepsin B (Homo sapiens, UniProt P07858); test: Enzyme specificity assay, cathepsin B (substrate Z-Arg-Arg-MNA); conditions: FIG. 2; phosphate buffer pH 5.5
Method: (§1) The above-mentioned compound was assayed for the inhibitory activity using […], cathepsin L and trypsin as enzymes other than caspase 3 and by an assay method similar to the above-mentioned Example 1 using phosphate buffer, pH 5.5 (100 mM NaCl, 5-mM DTT, 4 mM EDTA) as a buffer, Z-Arg-Arg-MNA as a substrate for […], Z-Phe-Arg-MNA as a substrate for cathepsin L, and Boc-Phe-Ser-Arg-MCA as a substrate for trypsin.

cathepsin L = cathepsin L (Homo sapiens, UniProt P07711); test: Enzyme specificity assay, cathepsin L (substrate Z-Phe-Arg-MNA); conditions: FIG. 2; phosphate buffer pH 5.5
Method: as §1

[1] = target: T1, human recombinant caspase 3 (Homo sapiens, UniProt P42574); test: Assay of inhibitory activity against human recombinant caspase 3 (fluorogenic substrate Ac-DEVD-MCA); conditions: for specificity of the enzyme inhibitory activity (in words): caspase 3 versus cathepsins and trypsin
T1 construct: purchased CALBIOCHEM 235417
T1 sequence (P42574 29-175 limits assumed): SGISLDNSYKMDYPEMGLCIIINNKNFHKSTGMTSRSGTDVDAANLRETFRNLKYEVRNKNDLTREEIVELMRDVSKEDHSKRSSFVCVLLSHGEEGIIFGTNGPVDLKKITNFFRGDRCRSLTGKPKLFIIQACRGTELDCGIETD
T1 sequence (P42574 176-277 limits assumed): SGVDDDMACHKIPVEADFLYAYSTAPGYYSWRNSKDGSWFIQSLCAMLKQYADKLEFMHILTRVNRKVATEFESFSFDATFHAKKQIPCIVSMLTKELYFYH
Method: A reaction buffer containing 10% sucrose, 0.1% CHAPS, 2 mM dithiothreitol in 25 mM HEPES (pH 7.5) is prepared. […] Thereto is added 25 μl of human recombinant caspase 3 (CALBIOCHEM catalog No. 235417), 500 U/ml, to start the reaction. After incubation at room temperature for 2 hr. the reaction quench buffer (0.1 M monochloroacetic acids 0.03 M sodium acetate, 0.15 M acetic acid (pH 4.3)) is added by 100 μl per well. The fluorescence of 7-amino-4-methylcoumarin ([…]) released by the enzyme reaction is measured using a fluorophotometer (Ex. 355 nm, Em. 460 nm).
The compounds of the above-mentioned 1. were examined for the activity inhibitory action on human recombinant caspase 3.

trypsin = target: T2, trypsin (Bos taurus, UniProt P00760); test: Enzyme specificity assay, trypsin (substrate Boc-Phe-Ser-Arg-MCA); conditions: FIG. 2; phosphate buffer pH 5.5
T2 construct: gene PRSS1
T2 sequence (P00760 24-246): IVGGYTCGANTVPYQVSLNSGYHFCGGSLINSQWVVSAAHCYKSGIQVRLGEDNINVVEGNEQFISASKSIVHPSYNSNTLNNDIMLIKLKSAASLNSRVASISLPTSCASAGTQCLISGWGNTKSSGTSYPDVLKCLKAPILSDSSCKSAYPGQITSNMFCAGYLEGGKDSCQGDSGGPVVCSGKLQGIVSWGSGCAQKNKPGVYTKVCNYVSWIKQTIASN
Method: as §1

[2] = FIG. 1 upper panel, read-out: IC50, inhibitory activity against human recombinant caspase 3
[3] = FIG. 1 lower panel, read-out: IC50, inhibitory activity against human recombinant caspase 3

Chain of cathepsin L (P07711 114-333, species assumed): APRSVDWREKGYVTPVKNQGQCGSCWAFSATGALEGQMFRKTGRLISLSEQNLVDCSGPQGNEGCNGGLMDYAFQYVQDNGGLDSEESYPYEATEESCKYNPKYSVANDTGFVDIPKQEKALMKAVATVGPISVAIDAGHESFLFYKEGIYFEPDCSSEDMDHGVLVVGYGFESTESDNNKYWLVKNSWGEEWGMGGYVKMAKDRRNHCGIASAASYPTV

Row | Compound | IC50 [1, 2] | IC50 [1, 3] | IC50 (cathepsin B) | IC50 (cathepsin L) | specificity of the enzyme inhibitory activity (in words) ([1]; FIG. 2) | IC50 (trypsin) | caspase 3 inhibitory activity (in words) ([1]; FIG. 1, compared with DEVD, standard product) | IC50 ([1]; FIG. 2, read-out: IC50, caspase (Enzyme Specificity)) | Inhibitory mode against human recombinant caspase 3 (Lineweaver-Burk plot) ([1]; FIG. 3, different substrate concentrations (2, 4, 6 and 8 nM))
1 | CC(=O)N[C@@H](CC(=O)O)C(=O)N[C@@H](CCC(=O)O)C(=O)N[C@H](C(=O)N[C@H](C=O)CC(=O)O)C(C)C [DEVD, acetyl-L-aspartyl-L-glutamyl-L-valyl-L-aspart-1-al, reference compound] | – | – | 672 nM | 17.4 µM | strongest inhibitory activity against caspase 3 | > 100 µM | – | – | –
2 | C=CC1=C(C)c2cc3[n-]c(cc4nc(cc5[n-]c(cc1n2)c(C)c5CCC(=O)[O-])C(CCC(=O)[O-])=C4C)c(C)c3C=C.[Co+2].[H+].[H+] [cobalt protoporphyrin] | 13.1 nM | – | – | – | – | – | – | – | –
3 | C/C1=C2/[N-]C([C@H](CC(N)=O)[C@@]2(C)CCC(=O)NCC(C)O)[C@]2(C)N=C(/C(C)=C3N=C(/C=C4N=C1[C@@H](CCC(N)=O)C\4(C)C)[C@@H](CCC(N)=O)[C@]\3(C)CC(N)=O)[C@@H](CCC(N)=O)[C@]2(C)CC(N)=O.[C-]#N.[C-]#N.[Co] (some centres unmarked) [dicyanocobinamide] | 0.28 nM | 0.142 nM | 102 nM | 0.00612 µM | strongest inhibitory activity against caspase 3 | > 5 µM | far stronger than the inhibitory activity of DEVD | 0.28 nM | competitively inhibits the substrate for caspase 3

The next lines start with results.

Row | IC50 [1, 2] | IC50 [1, 3] | Compound | IC50 (cathepsin B) | IC50 (cathepsin L) | specificity of the enzyme inhibitory activity (in words) ([1]; FIG. 2) | IC50 (trypsin) | caspase 3 inhibitory activity (in words) ([1]; FIG. 1, compared with DEVD, standard product) | IC50 ([1]; FIG. 2, read-out: IC50, caspase (Enzyme Specificity)) | Inhibitory mode against human recombinant caspase 3 (Lineweaver-Burk plot) ([1]; FIG. 3, different substrate concentrations (2, 4, 6 and 8 nM))
4 | 2100 nM | 1760 nM | cyanocobalamin [reference compound] | – | – | – | – | – | – | –
5 | – | 91.2 nM | cyanoimidazolylcobamide | – | – | – | – | – | – | –
